{
  "source": "ChEMBL document CHEMBL1201862",
  "about": "“PubChem BioAssay data set” (2004)",
  "key": {"Large T antigen": {"biological_target": "Large T antigen (Simian virus 40, UniProt P03070)", "sequence (P03070 whole entry)": "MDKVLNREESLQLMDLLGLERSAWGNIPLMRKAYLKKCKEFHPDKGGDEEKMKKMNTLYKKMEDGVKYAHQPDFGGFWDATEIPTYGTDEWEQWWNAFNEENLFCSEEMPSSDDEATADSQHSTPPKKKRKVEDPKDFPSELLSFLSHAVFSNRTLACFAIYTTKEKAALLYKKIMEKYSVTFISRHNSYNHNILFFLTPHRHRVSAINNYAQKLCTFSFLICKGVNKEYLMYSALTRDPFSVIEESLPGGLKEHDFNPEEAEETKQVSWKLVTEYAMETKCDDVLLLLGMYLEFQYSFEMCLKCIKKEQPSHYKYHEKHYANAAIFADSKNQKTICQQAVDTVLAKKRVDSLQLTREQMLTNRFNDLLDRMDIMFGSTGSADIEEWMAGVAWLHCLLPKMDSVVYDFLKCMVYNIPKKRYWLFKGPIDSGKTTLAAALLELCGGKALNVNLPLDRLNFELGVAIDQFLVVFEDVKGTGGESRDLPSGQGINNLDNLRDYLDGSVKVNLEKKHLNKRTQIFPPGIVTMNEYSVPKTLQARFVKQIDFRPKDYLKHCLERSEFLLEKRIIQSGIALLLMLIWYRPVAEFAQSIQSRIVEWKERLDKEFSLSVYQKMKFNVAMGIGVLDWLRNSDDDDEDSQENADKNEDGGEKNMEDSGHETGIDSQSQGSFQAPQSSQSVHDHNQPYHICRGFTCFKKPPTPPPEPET", "assay_type": "functional, Betapolyomavirus macacae"}, "[1]": {"experiment": "HPDE-C7 pancreatic duct cell viability loss – fluorescence, HTS (AID 430)", "assay_type": "functional, cell-based", "conditions": "Homo sapiens"}, "[2]": {"biological_target": "FAD-linked sulfhydryl oxidase ALR (Homo sapiens, UniProt P55789)", "sequence (P55789 whole entry)": "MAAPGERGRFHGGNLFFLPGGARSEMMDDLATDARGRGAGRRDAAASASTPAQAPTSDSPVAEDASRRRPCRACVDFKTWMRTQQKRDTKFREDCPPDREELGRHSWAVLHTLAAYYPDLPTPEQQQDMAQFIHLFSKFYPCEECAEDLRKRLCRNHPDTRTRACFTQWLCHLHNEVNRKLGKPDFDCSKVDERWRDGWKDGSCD", "experiment": "ALR-catalysed DTT oxidation blockers – biochemical, H2O2 detection, luminescence, cherry-pick, dose response (AID 493248)"}, "[3]": {"experiment": "viability loss of HPDE-C7K cells – cell-based, fluorescence, HTS, primary screen (AID 431)", "assay_type": "functional", "conditions": "Homo sapiens"}, "Kallikrein-7": {"biological_target": "Kallikrein-7 (Homo sapiens, UniProt P49862)", "sequence (P49862 whole entry)": "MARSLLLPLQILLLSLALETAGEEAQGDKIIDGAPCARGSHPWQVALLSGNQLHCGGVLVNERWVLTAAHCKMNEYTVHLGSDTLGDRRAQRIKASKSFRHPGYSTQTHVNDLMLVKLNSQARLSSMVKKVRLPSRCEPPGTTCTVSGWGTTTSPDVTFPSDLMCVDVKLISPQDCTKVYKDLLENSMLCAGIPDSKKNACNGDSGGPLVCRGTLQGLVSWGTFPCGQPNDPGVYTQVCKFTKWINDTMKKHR", "experiment": "Fluorescence Intensity-based biochemical primary high throughput dose response assay to identify activators of kallikrein-7 (K7) zymogen."}, "[4]": {"biological_target": "Eukaryotic translation initiation factor 4E (Mus musculus, UniProt P63073)", "sequence (P63073 whole entry)": "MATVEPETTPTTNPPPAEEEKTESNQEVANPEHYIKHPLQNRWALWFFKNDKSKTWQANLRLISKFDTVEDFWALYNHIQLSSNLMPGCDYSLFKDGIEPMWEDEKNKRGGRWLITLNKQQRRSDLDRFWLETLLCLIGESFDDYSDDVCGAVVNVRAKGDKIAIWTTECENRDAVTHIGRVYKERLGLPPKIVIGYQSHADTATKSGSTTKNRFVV", "experiment": "blockers of eIF4G binding by eIF4E – biochemical, TR-FRET, dose response (AID 855);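 further: potency for disrupting eIF4E binding to eIF4GI seen as loss of FRET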", "assay_type": "functional"}, "[5]": {"experiment": "HIV-1 Vif–A3G interaction blockers – biochemical, TR-FRET, GST-Vif 1-94, biotin-A3G peptide, dose response retest, primary screen (AID 1117319);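 further: TR-FRET signal of purified GST-Vif binding a biotinylated A3G peptide; inhibitors lower the FRET signal by blocking Vif and A3G binding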", "assay_type": "functional"}, "Protein Tat": {"biological_target": "T1, Protein Tat (Human immunodeficiency virus type 1 group M subtype B (isolate HXB2)(HIV-1), UniProt P04608)", "T1 sequence (P04608 whole entry)": "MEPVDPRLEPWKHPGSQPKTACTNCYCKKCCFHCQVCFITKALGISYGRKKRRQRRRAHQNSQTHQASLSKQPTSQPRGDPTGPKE", "assay_type": "functional"}, "[6]": {"experiment": "HIV-1 AD8 envelope cell-cell fusion blockers – cherry-pick, dose response (AID 652062);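 further: luciferase signal from cell-cell fusion driven by HIV-1 clade B AD8 Env; potency is for inhibitors of fusion seen as a drop in luminescence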", "assay_type": "functional, cell-based"}, "[7]": {"experiment": "Luminescence Cell-Based Dose Response HTS to Identify Inhibitors of 5'UTR Stem-Loop Driven Prion Protein mRNA Translation in H4 Neuroglioblastoma Cells. [Related pubchem assays: 1827 (Project Summary), 1813 (Primary HTS)]", "assay_type": "functional"}, "[8]": {"experiment": "blockers of HIV-1 ZM109 envelope-driven cell-cell fusion – HeLa effector, CEM target cells, luciferase, cherry-pick, dose response (AID 652058)", "assay_type": "functional, cell-based"}, "[9]": {"experiment": "viability of HCT116 lacking mutant beta-catenin – cell-based, human colon tumor, dose response (AID 1045);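 further: cells exposed to compound for 60 hours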", "assay_type": "functional"}, "[10]": {"experiment": "blockers of HIV-1 envelope-mediated cell-cell fusion – cherry-pick, dose response (AID 652057)", "assay_type": "functional, cell-based"}, "[11]": {"experiment": "Luminescence Cell-Based Dose Retest to Confirm Inhibitors of Cancer Stem Cells. [Related pubchem assays (depositor defined):AID2717, AID2721]", "assay_type": "functional", "conditions": "Homo sapiens"}, "[12]": {"experiment": "viability of PTEN-deleted HCT116 cells – cell-based, HCT116 PTEN knockout, dose response (AID 1047);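 further: cells exposed to compound for 60 hours before readout; potency for loss of cell viability measured by luminescence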", "assay_type": "functional"}, "[13]": {"experiment": "viability loss in CEM21 cells – cell-based, CellTiter-Glo luminescence, cherry-picked, cytotoxicity control for viral fusion inhibitor project, dose response (AID 652042);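 further: potency for signal decrease meaning cytotoxicity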", "assay_type": "functional"}, "[14]": {"experiment": "microbe, parasite or virus in culture", "assay_type": "functional", "conditions": "Mycobacterium tuberculosis"}, "[15]": {"biological_target": "T2, Corticotropin-releasing factor receptor 2/Corticotropin-releasing factor-binding protein (Homo sapiens, UniProt P24387+Q13324)", "T2 sequence (Q13324 whole entry)": "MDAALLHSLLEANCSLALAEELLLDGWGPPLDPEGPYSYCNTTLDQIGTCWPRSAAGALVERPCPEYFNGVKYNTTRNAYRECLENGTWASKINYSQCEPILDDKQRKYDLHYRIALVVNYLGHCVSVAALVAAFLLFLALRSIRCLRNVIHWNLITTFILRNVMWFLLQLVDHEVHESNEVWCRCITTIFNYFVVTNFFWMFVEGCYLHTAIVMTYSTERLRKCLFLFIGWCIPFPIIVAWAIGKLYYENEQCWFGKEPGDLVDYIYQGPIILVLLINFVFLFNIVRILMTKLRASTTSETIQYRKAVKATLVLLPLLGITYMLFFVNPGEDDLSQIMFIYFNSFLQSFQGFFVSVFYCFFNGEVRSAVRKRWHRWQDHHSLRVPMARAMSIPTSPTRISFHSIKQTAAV", "T2 sequence (P24387 whole entry)": "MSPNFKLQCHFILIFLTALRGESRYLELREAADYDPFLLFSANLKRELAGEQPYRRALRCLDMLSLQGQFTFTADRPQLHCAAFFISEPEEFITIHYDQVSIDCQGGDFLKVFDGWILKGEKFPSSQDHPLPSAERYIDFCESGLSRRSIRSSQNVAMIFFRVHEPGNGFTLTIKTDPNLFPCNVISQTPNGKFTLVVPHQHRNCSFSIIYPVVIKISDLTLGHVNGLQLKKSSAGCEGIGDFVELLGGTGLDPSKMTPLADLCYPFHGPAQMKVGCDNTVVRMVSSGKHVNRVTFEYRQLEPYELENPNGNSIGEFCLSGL", "experiment": "activators of CRF receptor 2 with binding protein – uHTS hits, confirmation (AID 602473)", "assay_type": "functional", "conditions": "read-out: EC50_Mean"}, "[16]": {"biological_target": "T2, Corticotropin-releasing factor receptor 2/Corticotropin-releasing factor-binding protein", "experiment": "Dose Response confirmation of uHTS hits for small molecule antagonists of the CRF-binding protein and CRF-R2 receptor complex.", "assay_type": "functional", "conditions": "read-out: IC50_Mean"}, "[17]": {"experiment": "blockers of CRF-binding protein–CRF-R2 complex – cell-based, uHTS hits, 384-well, dose response (AID 651639)", "assay_type": "functional, Homo sapiens", "conditions": "read-out: IC50_Mean"}},
  "note": "Activity calls are given as the source filed them.",
  "data": [
    {"compound": "O=C1CC(N2CCN(c3ccc(O)cc3)CC2)C(=O)N1Cc1cccs1", "note": "(centres undefined)", "values": [
      {"measurement": "IC50", "setting": "Large T antigen", "result": "5.41 µM (active)"},
      {"measurement": "EC50", "setting": "[1]", "result": "6.78 µM (active)"},
      {"measurement": "AC50", "setting": "[2]", "result": "0.123 µM (active)"},
      {"measurement": "EC50", "setting": "[3]", "result": "12 µM (active)"}
    ]},
    {"compound": "O=S(=O)(c1ccc(-c2cn3ccccc3n2)cc1)N1CCOCC1", "values": [
      {"measurement": "EC50", "setting": "Kallikrein-7", "result": "> 69.5 µM (inactive)"}
    ]},
    {"compound": "CN(C)S(=O)(=O)[n+]1ccn(C)c1.c1ccc([B-](c2ccccc2)(c2ccccc2)c2ccccc2)cc1", "values": [
      {"measurement": "EC50", "setting": "[1]", "result": "2.68 µM (active)"},
      {"measurement": "EC50", "setting": "[3]", "result": "1.77 µM (active)"},
      {"measurement": "IC50", "setting": "[4]", "result": "15.7 µM (active)"}
    ]},
    {"compound": "COc1ccc(S(=O)(=O)Nc2ccc3c(c2)OCO3)cc1C", "values": [
      {"measurement": "IC50", "setting": "[5]", "result": "> 100 µM (active)"}
    ]},
    {"compound": "COC(=O)C1=C(C)NC(=O)/C1=C\\c1cccs1", "values": [
      {"measurement": "IC50", "setting": "[5]", "result": "> 100 µM (active)"},
      {"measurement": "IC50", "setting": "Protein Tat", "result": "> 100 µM (active)"}
    ]},
    {"compound": "COc1ccc2c(C)nc(Nc3nc(C)c(C)c(O)n3)nc2c1", "values": [
      {"measurement": "AC50", "setting": "[6]", "result": "8.79 µM (active)"},
      {"measurement": "EC50", "setting": "[7]", "result": "> 120 µM (not active)"},
      {"measurement": "AC50", "setting": "[8]", "result": "2.84 µM (active)"},
      {"measurement": "EC50", "setting": "[9]", "result": "4.69 µM (active)"},
      {"measurement": "AC50", "setting": "[10]", "result": "10.3 µM (active)"},
      {"measurement": "AC50", "setting": "[11]", "result": "6.84 µM (active)"},
      {"measurement": "EC50", "setting": "[12]", "result": "5.4 µM (active)"},
      {"measurement": "AC50", "setting": "[13]", "result": "7.32 µM (active)"},
      {"measurement": "CC50", "setting": "[14]", "result": "7.44 µM (active)"}
    ]},
    {"compound": "CCOC(=O)c1ccc(NC(=O)CSCc2ccco2)cc1", "values": [
      {"measurement": "IC50", "setting": "[5]", "result": "> 73.7 µM (active)"},
      {"measurement": "IC50", "setting": "Protein Tat", "result": "81.6 µM (inconclusive)"}
    ]},
    {"compound": "O=C(Nc1cccc(F)c1)c1coc(=O)c(Br)c1", "values": [
      {"measurement": "EC50", "setting": "[15]", "result": "> 53 µM (inactive)"},
      {"measurement": "IC50", "setting": "[16]", "result": "9.89 µM (active)"},
      {"measurement": "IC50", "setting": "[17]", "result": "12.4 µM (active)"}
    ]},
    {"compound": "O=C(Nc1ccc(NC(=O)c2ccccc2O)cc1)Nc1ccc(F)cc1F", "values": [
      {"measurement": "EC50", "setting": "Kallikrein-7", "result": "9.78 µM (active)"}
    ]},
    {"compound": "Cc1cc([N+](=O)[O-])ccc1NCc1ccc2c(c1)OCCO2", "values": [
      {"measurement": "EC50", "setting": "[15]", "result": "> 53 µM (inactive)"},
      {"measurement": "IC50", "setting": "[16]", "result": "30.1 µM (active)"},
      {"measurement": "IC50", "setting": "[17]", "result": "19.9 µM (active)"}
    ]}
  ]
}
